Laboratory results published in ChEMBL document CHEMBL5303304, “EUbOPEN Chemogenomics Library - IncuCyte” (2023).
“And” between values parts separate entries of the source, which are not always exact repeats. Identical values can stand only once.

What was measured:
Format in all cases: toxicity, cell-based
HEK-293T = experiment: Incucyte cell viability with HEK293T; conditions: human, 10 µM, compound concentration 10 uM
U2OS = experiment: Incucyte cell viability with U2OS; conditions: human, 10 µM, compound concentration 10 uM
Fibroblast = experiment: Incucyte cell viability with human fibroblast; conditions: 10 µM, compound concentration 10 uM
Further: unitless GR value; below 1 slowed growth and below 0 cell loss.

Structure (SMILES) | Growth Rate (HEK-293T; 6 h, replicate number 2) | Growth Rate (HEK-293T; 12 h, replicate number 2) | Growth Rate (U2OS; 6 h, replicate number 1) | Growth Rate (U2OS; 6 h, replicate number 2) | Growth Rate (U2OS; 12 h, replicate number 1) | Growth Rate (U2OS; 12 h, replicate number 2) | Growth Rate (U2OS; 18 h, replicate number 1) | Growth Rate (U2OS; 18 h, replicate number 2) | Growth Rate (U2OS; 24 h, replicate number 1) | Growth Rate (Fibroblast; 6 h, replicate number 1) | Growth Rate (Fibroblast; 6 h, replicate number 2) | Growth Rate (Fibroblast; 12 h, replicate number 2) | Growth Rate (Fibroblast; 18 h, replicate number 1) | Growth Rate (Fibroblast; 18 h, replicate number 2) | Growth Rate (Fibroblast; 24 h, replicate number 2) | Growth Rate (HEK-293T; 24 h, replicate number 1) | Growth Rate (U2OS; 0 h, replicate number 1) | Growth Rate (Fibroblast; 0 h, replicate number 1) | Growth Rate (Fibroblast; 24 h, replicate number 1) | Growth Rate (Fibroblast; 12 h, replicate number 1) | further results
COc1ccccc1C(=O)Nc1cccc(NC(=O)c2cccc(C)c2)c1 | 0.58 | 0.91 | 0.17 | 0.68 | 0.78 | 0.75 | 0.83 | 0.84 | 0.88 | 0.45 | -1 | 0.94 | 0.17 | 0.98 | 0.85 |  |  |  |  |  | 
CCOC(=O)N1CCC(c2cc(O)n3nc(C)c(-c4ccc(F)cc4)c3n2)CC1 | 0.98 |  | 0.54 | 0.99 | 0.93 |  | 0.98 |  |  |  | -0.67 | 0.8 | 0.13 | 0.85 | 0.92 | 0.88 | 0.61 |  |  |  | Growth Rate (HEK-293T; 12 h, replicate number 1): 0.62; Growth Rate (HEK-293T; 18 h, replicate number 1): 0.78; Growth Rate (U2OS; 0 h, replicate number 2): 0.63
Cc1ccc(CNc2ncnc3ccc(-c4ccc(CO)o4)cc23)o1 | 0.11 | 0.71 |  |  |  |  |  | 0.94 |  | -1 |  |  |  |  |  |  | -0.83 |  |  |  | Growth Rate (HEK-293T; 18 h, replicate number 2): 0.69; Growth Rate (HEK-293T; 24 h, replicate number 2): 0.79; Growth Rate (U2OS; 24 h, replicate number 2): 0.86; Growth Rate (Fibroblast; 0 h, replicate number 2): 0.71
Cc1cc(C)c(NC(=O)C2CC3CCC2C3)c(C)c1 (stereo not given) | 0.65 |  | 0.68 |  | 0.47 | 0.78 | 0.75 |  | 0.83 | -0.94 | -0.52 | 0.78 |  | 0.75 | 0.97 |  |  |  |  |  | 
CN(C)CCOc1ccc(/C(=C(/CCCO)c2ccccc2)c2ccc(O)cc2)cc1 | 0.71 |  | 0.76 |  |  |  | 1 |  |  |  |  |  |  |  |  |  |  | 0.55 | 0.02 |  | Growth Rate (U2OS; 0 h, replicate number 2): -0.67; Growth Rate (Fibroblast; 0 h, replicate number 2): -0.4
COc1ccc(-c2csc(NC(=O)[C@H]3CCCCN3S(=O)(=O)c3ccc(C)cc3)n2)cc1 | 0.07 and 0.12 | 0.37 | 0.92 | 0.97 | 0.99 |  |  |  | 0.87 and 0.98 | 0.02 |  |  |  | 0.57 | 0.7 | 0.37 and 0.33 | 0.22 | -1 and -0.88 | 0.84 | 0.31 | Growth Rate (HEK-293T; 18 h, replicate number 1): 0.35 and 0.26; Growth Rate (HEK-293T; 18 h, replicate number 2): 0.3 and 0.38; Growth Rate (HEK-293T; 24 h, replicate number 2): 0.41 and 0.4; Growth Rate (U2OS; 0 h, replicate number 2): -0.9
COc1ccc(CC(=O)NC(N/C(=N/C#N)Nc2cccc3ncccc23)C(C)(C)C)cc1OC (stereo not given) | 0.89 |  | 0.08 | 0.31 | 0.96 | 0.85 | 0.98 | 0.78 |  | -0.31 | -1 | 0.57 | 0.6 | 0.81 | 0.59 |  | 0.85 |  |  | -1 | Growth Rate (HEK-293T; 18 h, replicate number 2): 0.99; Growth Rate (U2OS; 24 h, replicate number 2): 0.82
CC(C)n1nc(-c2cnc(N)c(OC(F)(F)F)c2)cc1[C@H]1[C@@H]2CN(C3COC3)C[C@@H]21 | 0.62 |  | 0.76 |  | 0.92 |  |  |  | 0.84 |  |  | 0.78 | 0.08 | 0.91 | 0.95 |  | 0.6 | 0.52 |  | -0.97 | 
O=C(Nc1cc(C(F)(F)F)ccc1N1CCCCC1)c1ccncc1 | 0.49 |  |  | 0.58 |  |  |  |  |  |  | 0.12 | 0.6 |  | 0.93 | 0.9 |  | 0.2 |  |  |  | Growth Rate (Fibroblast; 0 h, replicate number 2): -0.43
C[C@@H](c1ccc(F)cc1)n1nnc2cnc3ccc(-c4ccc5ocnc5c4)cc3c21 | 0.07 | 0.99 |  |  |  |  | 0.87 |  | 0.82 | -0.77 | 0.8 |  | 0.35 |  |  |  | -0.74 | 0.85 | 1 | -0.93 | Growth Rate (U2OS; 0 h, replicate number 2): 0.17; Growth Rate (Fibroblast; 0 h, replicate number 2): -0.11
COc1ccc(CSc2nnc(-c3ccc4ncsc4c3)o2)cc1C(F)(F)F | 0.47 | 0.75 | -0.59 | 0.78 |  | 0.87 |  | -0.67 |  | 0.92 | 0.49 | 0.64 | 0.68 | 0.71 | 0.84 | 0.95 | -0.97 | -1 | 0.64 | 0.88 | Growth Rate (HEK-293T; 18 h, replicate number 2): 0.76; Growth Rate (HEK-293T; 24 h, replicate number 2): 0.76; Growth Rate (U2OS; 0 h, replicate number 2): 0.81; Growth Rate (U2OS; 24 h, replicate number 2): 0.95
O=C1CCCc2[nH]c(-c3ccnc(NCC4CC4)c3)c(Nc3ccccc3)c21 | 0.41 | 0.66 | 0.51 |  | 0.68 |  | 0.72 |  | 0.59 | -0.03 |  | 0.57 | 0.49 | 0.89 | 0.88 | 0.88 | 0.75 | -1 | 0.45 | 0.34 | Growth Rate (HEK-293T; 18 h, replicate number 1): 0.94; Growth Rate (HEK-293T; 18 h, replicate number 2): 0.62; Growth Rate (HEK-293T; 24 h, replicate number 2): 0.7; Growth Rate (U2OS; 24 h, replicate number 2): 1
CCCN1C(=O)c2ccc(Cl)cc2Nc2ncccc21 |  | 0.86 | 0.65 |  |  | 0.68 |  | 0.91 | 0.98 | 0.56 | -0.63 | 0.55 | 0.68 | 0.62 |  |  | 0.38 | -1 | 0.63 | 0.9 | 
CP(C)(=O)c1ccc(CNC(=O)C2CCN(S(=O)(=O)c3cc(Cl)cc(Cl)c3)CC2)cc1 |  |  | 0.37 |  | 0.74 | 0.85 | 0.74 | 0.9 | 0.87 |  |  |  |  |  |  | 0.89 | 0.11 |  |  |  | Growth Rate (HEK-293T; 12 h, replicate number 1): 0.93; Growth Rate (HEK-293T; 18 h, replicate number 1): 0.9; Growth Rate (U2OS; 24 h, replicate number 2): 0.89; Growth Rate (Fibroblast; 0 h, replicate number 2): -0.94
Cc1ccc(-c2cn3nc(C(=O)NC4(c5ccc(F)cc5)CN(C)C4)c(C(C)C)c3c(=O)[nH]2)cc1C |  |  | 0.98 |  | 0.9 | 0.86 | 0.59 | 0.74 | 0.31 |  | 0.39 | 0.19 | 0.16 | 0.26 | 0.27 | 0.07 |  | -1 | 0.16 | 0.22 | Growth Rate (HEK-293T; 12 h, replicate number 1): 0.66; Growth Rate (HEK-293T; 18 h, replicate number 1): 0.19; Growth Rate (HEK-293T; 18 h, replicate number 2): 0.21; Growth Rate (HEK-293T; 24 h, replicate number 2): 0.09; Growth Rate (U2OS; 24 h, replicate number 2): 0.61
COc1ccccc1[C@@H]1CNCCC12CCN(C(=O)[C@](OC)(c1ccccc1)C(F)(F)F)CC2 |  |  | 0.37 |  | 0.85 |  | 0.73 | 0.99 | 0.53 | 0.9 |  | 0.7 | 0.54 | 0.97 | 0.68 | 0.22 | -0.8 | -1 | 0.63 | 0.93 | Growth Rate (HEK-293T; 12 h, replicate number 1): 0.43; Growth Rate (HEK-293T; 18 h, replicate number 1): 0.28; Growth Rate (HEK-293T; 18 h, replicate number 2): 0.64; Growth Rate (HEK-293T; 24 h, replicate number 2): 0.34; Growth Rate (U2OS; 0 h, replicate number 2): 0.59; Growth Rate (U2OS; 24 h, replicate number 2): 0.82
CC1CCN(C(=O)[C@@H](CCn2cccc2C#N)NS(=O)(=O)c2cccc3[nH]ccc23)CC1 | 0.99 |  | 0.55 | 0.85 |  | 0.81 |  |  | 0.86 |  |  |  |  | 0.96 |  |  | 0.26 |  |  |  | Growth Rate (Fibroblast; 0 h, replicate number 2): -0.84
CC1CNCCc2c1nc1ccnn1c2N1CC(C(=O)N2CCC(C)(C)C2)C1 (stereo not given) | 0.99 |  | 0.99 |  | 0.75 |  | 0.86 |  | 0.98 | 0.73 | -0.38 | 0.76 | 0.7 | 0.74 | 0.97 |  | 0.03 | -1 | 0.84 | 0.56 | 
